According to US11414424B2, “Cardiac sarcomere inhibitors” (Cytokinetics, Inc., priority 2018, dated 2022):

test system: bovine cardiac myofibrils; assay: Myofibril assay: PK/LDH-coupled steady-state ATPase activity of skinned bovine cardiac myofibrils; type: biochemical; details: Ca2+ activating to 75% of maximal rate
Description: To evaluate the effect of compounds on the ATPase activity of full-length cardiac myosin in the context of the native sarcomere, skinned myofibril assays were performed. Bovine cardiac myofibrils were obtained by homogenizing bovine cardiac left ventricular tissue in the presence of a detergent such as triton X-100. Such treatment removes membranes and a majority of the soluble cytoplasmic proteins but leaves intact the cardiac sarcomeric acto-myosin apparatus. Myofibril preparations retain the ability to hydrolyze ATP in a Ca^2+ regulated manner. ATPase activities of such myofibril preparations in the presence and absence of compounds were assayed at Ca^2+ concentrations activating to a defined fraction of the maximal rate (i.e., […], 75%). Small molecule agents were assessed for their ability to inhibit the steady-state ATPase activity of bovine cardiac myofibrils using pyruvate kinase and lactate dehydrogenase (PK/LDH)-coupled enzyme system. This assay regenerates myosin-produced ADP into ATP by oxidizing NADH, producing an absorbance change at 340 nm. Prior to testing small molecule agents, the bovine cardiac myofibrils were assessed for their calcium responsiveness and the calcium concentration that achieves either a 50% (pCa50) or 75% (pCa75) activation of the myofibril system was chosen as the final condition for assessing the inhibitory activity of the small molecule agents. All enzymatic activity was measured in a buffered solution containing 12 mM PIPES (piperazine-N,N′-bis(2-ethanesulfonic acid), 2 mM magnesium chloride at pH 6.8 (PM 12 buffer). Final assay conditions were 1 mg/mL of bovine cardiac myofibrils, 4 U/mL pyruvate kinase, 6 U/mL lactate dehydrogenase, 50 μM ATP, 0.1 mg/mL BSA (bovine serum albumin), 10 ppm antifoam, 1 mM DTT, 0.5 mM NADH, 1.5 mM PEP, 0.6 mM EGTA, and an amount of CaCl2 sufficient to achieve either 50% or 75% activation of the myofibril ATPase activity. Results for compounds tested are provided in Table A. Compounds tested were prepared in accordance with the synthetic procedures described herein.

CDMF75 IC15 [µM] | SMILES
9.0 | Cc1cc(Cl)cnc1N1CC(=O)N(Cc2ccc(C(F)(F)F)cc2)C(C2(C)COC2)C1=O (stereo not shown) [Compound 652, 1-(5-chloro-3-methylpyridin-2-yl)-3-(3-methyloxetan-3-yl)-4-(4-(trifluoromethyl)-benzyl)piperazine-2,5-dione]
4.6 | Cc1cc(N2CCC3(C2)C(=O)N(C(C)C)CC(=O)N3Cc2ccc(Cl)cc2)ccn1 (stereo not shown) [Compound 129, 6-(4-chlorobenzyl)-9-isopropyl-2-(2-methyl-pyridin-4-yl)-2,6,9-triazaspiro-[4.5]decane-7,10-dione]
2.9 | O=C1C(C2COC2)N(Cc2ccc(C(F)(F)F)c(F)c2)C(=O)CN1c1ncc(Cl)cc1F (stereo not shown) [Compound 649, 1-(5-chloro-3-fluoropyridin-2-yl)-4-(3-fluoro-4-(trifluoromethyl)benzyl)-3-(oxetan-3-yl)piperazine-2,5-dione]
0.4 | N#Cc1ccc(N2CC(=O)N(Cc3ccc(C(F)(F)F)cc3)[C@]3(CCN(C(=O)C4CC4)C3)C2=O)c(F)c1 [Compound 219, (S)-4-(2-(cyclopropane-carbonyl)-7,10-dioxo-6-(4-(trifluoromethyl)benzyl)-2,6,9-triazaspiro[4.5]decan-9-yl)-3-fluorobenzonitrile]
5.8 | CC(C)N1CC(=O)N(Cc2ccc(Cl)cc2)C2(CN(c3ccc(Cl)nn3)C2)C1=O [Compound 50, 5-(4-chlorobenzyl)-2-(6-chloropyridazin-3-yl)-8-isopropyl-2,5,8-triazaspiro[3.5]nonane-6,9-dione]
5.7 | CC(C)N1CC(=O)N(Cc2ccc(Cl)cc2)C2(CN(c3ccncn3)C2)C1=O [Compound 19, 5-(4-chlorobenzyl)-8-isopropyl-2-(pyrimidin-4-yl)-2,5,8-triazaspiro-[3.5]nonane-6,9-dione]
1.4 | O=C1C(C2COC2)N(Cc2ccc(Cl)cc2)C(=O)CN1c1ncc(Br)cc1F (stereo not shown) [Compound 708, 1-(5-bromo-3-fluoropyridin-2-yl)-4-(4-chlorobenzyl)-3-(oxetan-3-yl)piperazine-2,5-dione]
>39 | O=C1C(C2CC(O)C2)N(Cc2ccc(C(F)(F)F)cc2)C(=O)CN1c1ncc(Cl)cc1F (single isomer, unassigned) [Compound 740D, 1-(5-chloro-3-fluoropyridin-2-yl)-3-(3-hydroxycyclobutyl)-4-(4-(trifluoromethyl)benzyl)piperazine-2,5-dione]
4.5 | CC(C)N1CC(=O)N(Cc2ccc(Cl)cc2)C2(CCN(c3ccc(C#N)cn3)C2)C1=O (stereo not shown) [Compound 96, 6-(6-(4-chlorobenzyl)-9-isopropyl-7,10-dioxo-2,6,9-triazaspiro[4.5]decan-2-yl)nicotinonitrile]
1.4 | O=C1C(CC2COC2)N(Cc2ccc(C(F)(F)F)cc2)C(=O)CN1c1ncc(Cl)cc1F (stereo not shown) [Compound 639, 1-(5-chloro-3-fluoropyridin-2-yl)-3-(oxetan-3-ylmethyl)-4-(4-(trifluoromethyl)-benzyl)piperazine-2,5-dione]
17.6 | CC(C)N1CC(=O)N(Cc2ccc(Cl)cc2)C2(CN(C(=O)Nc3cnn(C)c3)C2)C1=O [Compound 66, 5-(4-chlorobenzyl)-8-isopropyl-N-(1-methyl-1H-pyrazol-4-yl)-6,9-dioxo-2,5,8-triazaspiro[3.5]-nonane-2-carboxamide]
4.7 | CC(=O)N1CC2(C1)C(=O)N(c1ncc(C#N)cc1F)CC(=O)N2Cc1ccc(C(F)(F)F)cc1 [Compound 530, 6-(2-acetyl-6,9-dioxo-5-(4-(trifluoromethyl)benzyl)-2,5,8-triazaspiro[3.5]nonan-8-yl)-5-fluoronicotinonitrile]
3.9 | CC(=O)N1CC2(C1)C(=O)N(c1ccc(-c3ncon3)cc1F)CC(=O)N2Cc1ccc(C(F)(F)F)cc1 [Compound 701, 2-acetyl-8-(2-fluoro-4-(1,2,4-oxadiazol-3-yl)phenyl)-5-(4-(trifluoromethyl)benzyl)-2,5,8-triazaspiro[3.5]nonane-6,9-dione]
1.2 | CNC(=O)N1CC2(C1)C(=O)N(c1ccc(C#N)cc1)CC(=O)N2Cc1ccc(C(F)(F)F)cc1 [Compound 146, 8-(4-cyanophenyl)-N-methyl-6,9-dioxo-5-(4-(trifluoromethyl)benzyl)-2,5,8-triazaspiro[3.5]-nonane-2-carboxamide]
3.7 | CC(C)N1CC(=O)N(Cc2ccc(Cl)cc2)C2(CN(c3nc4c(s3)COCC4)C2)C1=O [Compound 47, 5-(4-chlorobenzyl)-2-(6,7-dihydro-4H-pyrano[4,3-d]thiazol-2-yl)-8-isopropyl-2,5,8-triazaspiro[3.5]-nonane-6,9-dione]
3.0 | Cc1cc(N2CC3(C2)C(=O)N(C(C)C)CC(=O)N3Cc2ccc(Cl)cc2)n[nH]1 [Compound 26, 5-(4-chlorobenzyl)-8-isopropyl-2-(5-methyl-1H-pyrazol-3-yl)-2,5,8-triazaspiro[3.5]nonane-6,9-dione]
1.1 | O=C1C(C2CC(O)C2)N(Cc2ccc(C(F)(F)F)cc2)C(=O)CN1c1ncc(Cl)cc1F (single isomer, unassigned) [Compound 740A, 1-(5-chloro-3-fluoropyridin-2-yl)-3-(3-hydroxycyclobutyl)-4-(4-(trifluoromethyl)benzyl)piperazine-2,5-dione]
1.3 | N#Cc1ccc(N2CC(=O)N(Cc3ccc(C(F)(F)F)cc3)[C@]3(CCN(C(=O)C4COC4)C3)C2=O)c(F)c1 [Compound 215, (S)-3-fluoro-4-(2-(oxetane-3-carbonyl)-7,10-dioxo-6-(4-(trifluoromethyl)benzyl)-2,6,9-triazaspiro[4.5]decan-9-yl)benzonitrile]
0.5 | Cc1cc(Cl)cnc1N1CC(=O)N(Cc2ccc(F)cc2)C2(CN(c3ccc(F)cn3)C2)C1=O [Compound 885, 8-(5-chloro-3-methyl-pyridin-2-yl)-5-(4-fluoro-benzyl)-2-(5-fluoropyridin-2-yl)-2,5,8-triazaspiro-[3.5]nonane-6,9-dione]
2.7 | NC(=O)C12CC(C3C(=O)N(c4ncc(Cl)cc4F)CC(=O)N3Cc3ccc(F)cc3)(C1)C2 (stereo not shown) [Compound 791, 3-(4-(5-chloro-3-fluoro-pyridin-2-yl)-1-(4-fluoro-benzyl)-3,6-dioxopiperazin-2-yl)bicyclo[1.1.1]pentane-1-carboxamide]
0.3 | CNc1cccc(N2CC3(C2)C(=O)N(c2ccc(C#N)cc2F)CC(=O)N3Cc2ccc(C(F)(F)F)cc2)c1C(=O)OC [Compound 544, methyl 2-(8-(4-cyano-2-fluorophenyl)-6,9-dioxo-5-(4-(trifluoromethyl)benzyl)-2,5,8-triazaspiro[3.5]nonan-2-yl)-6-(methylamino)-benzoate]
7.2 | CCNC(=O)N1CCC2(C1)C(=O)N(C(C)C)CC(=O)N2Cc1ccc(C(F)(F)F)cc1 (stereo not shown) [Compound 116, N-ethyl-9-isopropyl-7,10-dioxo-6-(4-(trifluoromethyl)benzyl)-2,6,9-triazaspiro[4.5] decane-2-carboxamide]
3.2 | Cc1cc(CN2C(=O)CN(c3ncc(Cl)cc3C)C(=O)C2C2COC2)ccc1F (stereo not shown) [Compound 727, 1-(5-chloro-3-methyl-pyridin-2-yl)-4-(4-fluoro-3-methylbenzyl)-3-(oxetan-3-yl)piperazine-2,5-dione]
2.9 | CC(=O)N1CC2(C1)C(=O)N(c1ncc(Cl)cc1F)CC(=O)N2Cc1ccc(Cl)cc1 [Compound 182, 2-acetyl-8-(5-chloro-3-fluoropyridin-2-yl)-5-(4-chlorobenzyl)-2,5,8-triazaspiro[3.5]nonane-6,9-dione]
8.0 | COc1cnc(N2CC(=O)N(Cc3ccc(F)c(Cl)c3)C(C3COC3)C2=O)c(F)c1 (stereo not shown) [Compound 775, 4-(3-chloro-4-fluoro-benzyl)-1-(3-fluoro-5-methoxypyridin-2-yl)-3-(oxetan-3-yl)piperazine-2,5-dione]
6.5 | CC1(CO)C(=O)N(c2ncc(Cl)cc2F)CC(=O)N1Cc1ccc(C(F)(F)F)cc1 (stereo not shown) [Compound 573, 1-(5-chloro-3-fluoropyridin-2-yl)-3-(hydroxymethyl)-3-methyl-4-(4-(trifluoro-methyl)benzyl)piperazine-2,5-dione]
4.5 | N#Cc1ccc(N2CC(=O)N(Cc3ccc(C(F)(F)F)cc3)[C@]3(C[C@H](C(=O)NC4CC4)C3)C2=O)c(F)c1 [Compound 459, (2r,4r)-8-(4-cyano-2-fluoro-phenyl)-N-cyclopropyl-6,9-dioxo-5-(4-(trifluoromethyl)benzyl)-5,8-diazaspiro[3.5]nonane-2-carboxamide]

same assay, conditions: Ca2+ activating to 75% of maximal rate, listed as 838B

CDMF75 IC15 [µM] | SMILES
>39 | O=C1C(C23CC(O)(C2)C3)N(Cc2ccc(C(F)(F)F)cc2)C(=O)CN1c1ncc(Cl)cc1F (single isomer, unassigned) [Enantiomer 838B, 1-(5-chloro-3-fluoropyridin-2-yl)-3-(3-hydroxybicyclo[1.1.1]pentan-1-yl)-4-(4-(trifluoromethyl)benzyl)piperazine-2,5-dione]
